Values belong to the compound of their own block, whether it stands above or below them. Where a SMILES comes first, the peptide text is derived from it. The star is where a group is joined. Cbz = O=C(OCc1ccccc1)*; CH2F = FC*
Columns and labels:
[1] = test system: actin cleavage by caspase 3 in neurons; assay: Quantification of actin cleavage by caspase 3 using anti-fractin antibody (FIGS. 4 and 5); assay type: cell-based, mouse or rat; conditions: for actin cleavage (percentage of fractin-positive neurons): 24 h, triplicate
Experimental: (§1) For the immunodetection of the fractin or of the p20 subunit of caspase 3 (Pharmingen), the cells are fixed with 4% paraformaldehyde (30 minutes, room temperature), washed three times with PBS and saturated for 1 hour at 37° C. with 10% fetal calf serum (FCS) in PBS containing 0.2% of Triton X 100.
(§2) Purified primary antibodies directed against fractin or p20 are diluted (in PBS-FCS) 2000-fold and 500-fold, respectively, incubated overnight at 4° C. washed three times and incubated with biotinylated anti-rabbit antibodies.
(§3) The detection is carried out using the alkaline phosphatase amplification kit (Vector, France).
(§4) For each condition, 600 to 800 cells are counted three times.
(§5) The statistical analysis is carried out with ANOVA and the Scheffé test.
FIGS. 4 and 5 illustrate the quantification of the actin cleavage by caspase 3 using the anti-fractin antibody, by immunocytochemistry after fixing the cells with paraformaldehyde (F. Yang et al., Am. J. Pathol., 1998, 152, 2, 379–389). The anti-fractin antibody specifically recognizes actin cleaved by caspase 3. The percentage of fractin-positive neurons was determined after 24 h of internalization of the peptides, by counting approximately 1000 cells per well in triplicate.

[2] = test system: neurons (primary culture); assay: Quantification of DNA cleavage by TUNEL 24 h after internalization of the peptides (FIG. 2); assay type: cell-based, mouse or rat; conditions: for DNA cleavage (percentage of TUNEL-positive cells): triplicate, p<0.0001
Experimental: (§6) Cortical and corticostriatal neurons are prepared, as described previously (Lafont et al., Development, 1992, 114, 17–29, ), from E14, mouse embryos or from E15, rat embryos.
(§7) Briefly, the dissociated cells are plated out onto polyornithine-coated plastic plates (ELISA-type plates) at a density of 5,000, cells per well, and incubated in a suitable medium supplemented with hormones, proteins and salts.
(§8) All the peptides are added to the cells two hours after the latter have been plated out. The internalization is verified by confocal microscopy after immunolabeling (Pmyc) or detection of biotin (Jcasp and its variants).
(§9) The internalization and the intracellular stability of Jcasp, Pmyc and J(Y→D)Casp are identical. The irreversible caspase inhibitors zVAD-fmk (100 μM) and zDEVD-fmk (200 μM) (Calbiochem, France) are added 1 hour before addition of the peptide.
(§10) The apoptotic cells are detected by TUNEL labeling (fluorescein or alkaline phosphatase kits) as described by the supplier (Roche Diagnostics, France).
as §4, §5
Peptide G was internalized at 2 concentrations (1X and 2X) and peptide Gcasp (or Jcasp) was internalized at the 1X concentration, in the presence or absence of the caspase inhibitor zVAD.
Each condition was tested in triplicate. The percentage of positive cells was evaluated after 24 h by counting approximately 1000 cells per well.

[3] = test system: cortical and corticostriatal neurons; assay: Internalization of peptides into primary cultures of neurons: toxicity, neurite growth, neuronal death; assay type: cell-based, mouse or rat
Experimental: as §6, §7
The internalization conditions are the same as those described in International Application WO 97/12912.
as §8

[4] = test system: E15 rat cortical neurones; assay: Cell death by TUNEL in E15 rat cortical neurones (FIG. 3); assay type: cell-based
Experimental: as §6, §7, §8, §9, §10, §4, §5
Peptide Jcasp induces neuronal apoptosis. Two hours after plating out onto plates, peptide Jcasp is added to the E15 rat cortical neurones and cell death is evaluated by the TUNEL effect, 24 hours later.

[5] = test system: p20 subunit of caspase 3 in mouse cortical embryonic neurons; assay: Immunoreactivity for the p20 subunit of caspase 3 (FIGS. 6 and 7); assay type: cell-based; conditions: inhibitor with peptide Jcasp
Experimental: as §1, §2, §3, §4, §5
In order to verify that caspase 3 is effectively involved in the apoptosis caused by peptide Jcasp, use is made of the fact that this enzyme (caspase 3) is synthesized in the form of a propetide (37 kDa) which, after stimulation, generates an active subunit of 17–22 kDa (p20).
Immunoreactivity for p20 is examined in mouse cortical embryonic neurons cultured for 24 hours in the presence of several peptides. FIG. 6 illustrates the immunoreactivity for the p20 protein and FIG. 7 quantifies the induction of the p20.

actin cleavage (percentage of fractin-positive neurons) ([1]; 1X): significant increase | actin cleavage (percentage of fractin-positive neurons) ([1]; 2X, p<0.0001): significant increase
Compound: peptide G: KQYTSIHHG, APP positions 651–659 (SEQ ID NO: 2, Y0 null), tested with Y1 = penetratin SEQ ID NO: 5 (KQIKIWFQNRRMKWKKKQYTSIHHG; listed as Homo sapiens)
DNA cleavage (percentage of TUNEL-positive cells) ([2]; concentration 1X): significant increase | DNA cleavage (percentage of TUNEL-positive cells) ([2]; concentration 2X): significant increase | effect on neurite growth after internalization ([3]; concentrations lower than one μM): reproduces the effects of the intact C-terminal domain | pro-apoptotic nature after internalization ([3]; internalized into neurons): pro-apoptotic

Compound: COC(=O)CC[C@H](NC(=O)[C@H](CC(=O)OC)NC(=O)OCc1ccccc1)C(=O)N[C@H](C(=O)N[C@@H](CC(=O)OC)C(=O)CF)C(C)C [zDEVD-fmk]
effect on actin cleavage induced by peptide Jcasp (FIG. 5) ([1]; inhibitor with peptide Jcasp): inhibits the actin cleavage | effect on basal cell death (TUNEL) ([4]; inhibitor at 200 μM, added 1 hour before peptide): weak effect | inhibition of DNA fragmentation induced by peptide Jcasp ([4]; inhibitor at 200 μM, Jcasp at 1.2 μM and 2.4 μM): inhibits the DNA fragmentation | effect on activation of p20 by peptide Jcasp [5]: significantly decreases the activation of p20

Compound: Pmyc: SEQ ID NO: 5 + peptide corresponding to the MYC sequence [EQKLISEED]; no relation to APP (KQIKIWFQNRRMKWKKEQKLISEED; listed as Homo sapiens)
DNA fragmentation / number of TUNEL-positive cells ([4]; 24 hours, concentration not given): no effect

Compound: peptide H: SEQ ID NO: 5 + domain H (NGYENPTYK, SEQ ID NO: 7), APP positions 680–688 (KQIKIWFQNRRMKWKKNGYENPTYK; listed as Homo sapiens)
effect on neurite growth after internalization ([3]; internalization into neurons): no effect

effect on endogenous cleavage of actin by caspases of neurones ([1]; inhibitor alone): inhibits all endogenous cleavage | effect on the peptide-induced increase in actin cleavage ([1]; with G1X, G2X and Gcasp1X, p<0.0001, inhibition not complete): significantly inhibits the increase | effect of caspase inhibitor on peptide-induced increase in DNA cleavage (TUNEL) ([2]; with peptide G or Jcasp): inhibits this increase in cleavage
Compound: COC(=O)C[C@H](NC(=O)[C@H](C)NC(=O)[C@@H](NC(=O)OCc1ccccc1)C(C)C)C(=O)CF [zVAD-fmk] (Cbz-Val-Ala-Asp(OMe)-CH2F)

Compound: peptide E: SEQ ID NO: 5 + domain E (VDAAVTPEE, SEQ ID NO: 6), APP positions 663–671 (KQIKIWFQNRRMKWKKVDAAVTPEE; listed as Homo sapiens)
effect on neurite growth after internalization ([3]; internalization into neurons): no effect

From patent US7115380B2, “Applications of peptides derived from the cytoplasmic domain of amyloid precursor protein (APP)” (Centre National de la Recherche Scientifique, priority 1999, dated 2006)
